For 20 compounds, IC50 results are on record in patent US12331026B2 (NiKang Therapeutics, Inc., priority 2022, dated 2025).

This test has as its target T1, CDK2 (Homo sapiens, UniProt P24941).
T1 construct: endogenous in cells; host or cells: OVCAR3 cells
Put plainly: Phospho-RB measurement in OVCAR3 cells (HTRF phospho-RB S807/811). The test is classed as cell-based. As to conditions: phosphorylation of RB protein at S807/811, HTRF, 24 h compound treatment, 0.3 to 10,000 nM, read-out: pRb (uM). The gist of the method:
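IC50 values come from four-parameter logistic fits of the DMSO-normalised 665/620 nm TR-FRET ratio for phospho-RB (S807/811). Antibody detection ran 4 h at room temperature.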
In general terms: Time-resolved FRET reads energy transfer from a long-lived donor to a nearby acceptor.
With `O=S1(=O)C[C@@H]2[C@H](C1)[C@H]2Nc1nccc(-c2sc(C34CCC(CC3)C4)nc2-c2cccc(NS(=O)(=O)c3c(F)cccc3F)c2F)n1` [Example 99, N-(3-(2-(bicyclo[2.2.1]heptan-1-yl)-5-(2-(((1R,5S,6r)-3,3-dioxido-3-thiabicyclo[3.1.0]hexan-6-yl)amino)pyrimidin-4-yl)thiazol-4-yl)-2-fluorophenyl)-2,6-difluorobenzenesulfonamide], the IC50 was 0.06 µM. For `O=S1(=O)C[C@@H]2[C@H](C1)[C@H]2Nc1nccc(-c2sc(N3C4CCC3CN(C3CC(F)(F)C3)C4)nc2-c2cccc(NS(=O)(=O)c3c(F)cccc3C(F)(F)F)c2F)n1` [Example 109, N-(3-(2-(3-(3,3-difluorocyclobutyl)-3,8-diazabicyclo[3.2.1]octan-8-yl)-5-(2-(((1R,5S,6r)-3,3-dioxido-3-thiabicyclo[3.1.0]hexan-6-yl)amino)pyrimidin-4-yl)thiazol-4-yl)-2-fluorophenyl)-2-fluoro-6-(trifluoromethyl)benzenesulfonamide], the IC50 was determined as 0.09 µM. To `CS(=O)(=O)[C@H]1CC[C@@H](Nc2nccc(-c3sc(C45CC(Cl)(C4)C5)nc3-c3cccc(NS(=O)(=O)c4c(F)cccc4C(F)(F)F)c3F)n2)CC1` [Example 146, N-(3-(2-(3-chlorobicyclo[1.1.1]pentan-1-yl)-5-(2-(((1s,4s)-4-(methylsulfonyl)cyclohexyl)amino)pyrimidin-4-yl)thiazol-4-yl)-2-fluorophenyl)-2-fluoro-6-(trifluoromethyl)benzenesulfonamide] belongs 0.2 µM; to `O=S1(=O)CC2(CC(Nc3nccc(-c4sc(N5C6CCCC5CC6)nc4-c4cccc(NS(=O)(=O)c5c(F)cccc5F)c4F)n3)C2)C1` [Example 19, N-(3-(2-(8-azabicyclo[3.2.1]octan-8-yl)-5-(2-((2,2-dioxido-2-thiaspiro[3.3]heptan-6-yl)amino)pyrimidin-4-yl)thiazol-4-yl)-2-fluorophenyl)-2,6-difluorobenzenesulfonamide], 0.19 µM. Turning to `CC1C2(CC(Nc3nccc(-c4sc(C56CC(C5)C6)nc4-c4cccc(NS(=O)(=O)c5c(F)cccc5F)c4F)n3)C2)C(C)S1(=O)=O` (centres unmarked) [Example 154, N-(3-(2-(bicyclo[1.1.1]pentan-1-yl)-5-(2-((1,3-dimethyl-2,2-dioxido-2-thiaspiro[3.3]heptan-6-yl)amino)pyrimidin-4-yl)thiazol-4-yl)-2-fluorophenyl)-2,6-difluorobenzenesulfonamide], the IC50 stood at 0.095 µM. The figure for `CC1CCC(C)N1c1nc(-c2cccc(NS(=O)(=O)c3c(F)cccc3F)c2F)c(-c2ccnc(NC3CC4(C3)CS(=O)(=O)C4)n2)s1` (centres unmarked) [Example 65, N-(3-(2-(2,5-dimethylpyrrolidin-1-yl)-5-(2-((2,2-dioxido-2-thiaspiro[3.3]heptan-6-yl)amino)pyrimidin-4-yl)thiazol-4-yl)-2-fluorophenyl)-2,6-difluorobenzenesulfonamide] is 0.39 µM; for `CS(=O)(=O)[C@H]1CC[C@H](Nc2nccc(-c3sc(C45CC(C(F)F)(C4)C5)nc3-c3cccc(NS(=O)(=O)c4c(F)cccc4C(F)(F)F)c3F)n2)CC1` [Example 134, N-(3-(2-(3-(difluoromethyl)bicyclo[1.1.1]pentan-1-yl)-5-(2-(((1r,4r)-4-(methylsulfonyl)cyclohexyl)amino)pyrimidin-4-yl)thiazol-4-yl)-2-fluorophenyl)-2-fluoro-6-(trifluoromethyl)benzenesulfonamide] it is 0.08 µM; for `O=S1(=O)CC2(CC(Nc3nccc(-c4sc(N5C6CCC5CN(c5ccccn5)C6)nc4-c4cccc(NS(=O)(=O)c5c(F)cccc5F)c4F)n3)C2)C1` [Example 43, N-(3-(5-(2-((2,2-dioxido-2-thiaspiro[3.3]heptan-6-yl)amino)-pyrimidin-4-yl)-2-(3-(pyridin-2-yl)-3,8-diazabicyclo[3.2.1]octan-8-yl)thiazol-4-yl)-2-fluorophenyl)-2,6-difluorobenzenesulfonamide] it is 0.46 µM. The figure for `O=S1(=O)CC2(CC(Nc3nccc(-c4sc(N5C6CCC5CN(CC(F)(F)F)C6)nc4-c4cccc(NS(=O)(=O)c5c(F)cccc5F)c4F)n3)C2)C1` [Example 139, N-(3-(5-(2-((2,2-dioxido-2-thiaspiro[3.3]heptan-6-yl)amino)-pyrimidin-4-yl)-2-(3-(2,2,2-trifluoroethyl)-3,8-diazabicyclo-[3.2.1]octan-8-yl)thiazol-4-yl)-2-fluorophenyl)-2,6-difluoro-benzenesulfonamide] is 0.13 µM; for `CS(=O)(=O)C1CCC(Nc2nccc(-c3sc(C45CC(C(F)(F)F)(C4)C5)nc3-c3cccc(NS(=O)(=O)c4c(Cl)cccc4C(F)(F)F)c3F)n2)CC1` (centres unmarked) [Example 118, 2-chloro-N-(2-fluoro-3-(5-(2-(((1s,4s)-4-(methylsulfonyl)-cyclohexyl)amino)pyrimidin-4-yl)-2-(3-(trifluoromethyl)bicyclo-[1.1.1]pentan-1-yl)thiazol-4-yl)phenyl)-6-(trifluoromethyl)-benzenesulfonamide] it is 0.73 µM; for `CC1(C)CCN1c1nc(-c2cccc(NS(=O)(=O)c3c(F)cccc3C(F)(F)F)c2F)c(-c2ccnc(N[C@@H]3[C@@H]4CS(=O)(=O)C[C@@H]43)n2)s1` [Example 120, N-(3-(2-(2,2-dimethylazetidin-1-yl)-5-(2-(((1R,5S,6s)-3,3-dioxido-3-thiabicyclo[3.1.0]hexan-6-yl)amino)pyrimidin-4-yl)thiazol-4-yl)-2-fluorophenyl)-2-fluoro-6-(trifluoromethyl)benzenesulfonamide] it is 0.29 µM. With `O=S1(=O)CC2(CC(Nc3nccc(-c4sc(C56CC(CO)(C5)C6)nc4-c4cccc(NS(=O)(=O)c5c(F)cccc5F)c4F)n3)C2)C1` [Example 34, N-(3-(5-(2-((2,2-dioxido-2-thiaspiro[3.3]heptan-6-yl)amino)pyrimidin-4-yl)-2-(3-(hydroxymethyl)bicyclo[1.1.1]pentan-1-yl)thiazol-4-yl)-2-fluorophenyl)-2,6-difluorobenzenesulfonamide], the IC50 worked out at 2.01 µM. For `CS(=O)(=O)C1CCC(Nc2nccc(-c3sc(C45CC(F)(C4)C5)nc3-c3cccc(NS(=O)(=O)c4c(F)cccc4C(F)(F)F)c3F)n2)CC1` (centres unmarked) [Example 27, 2-fluoro-N-(2-fluoro-3-(2-(3-fluorobicyclo[1.1.1]pentan-1-yl)-5-(2-(((1s,4s)-4-(methylsulfonyl)cyclohexyl)amino)pyrimidin-4-yl)thiazol-4-yl)phenyl)-6-(trifluoromethyl)benzenesulfonamide], the IC50 is 0.066 µM. In the case of `CC1(C#N)CC2CCC(C1)N2c1nc(-c2cccc(NS(=O)(=O)c3c(F)cccc3C(F)(F)F)c2F)c(-c2ccnc(NC3CC4(C3)CS(=O)(=O)C4)n2)s1` (centres unmarked) [Example 151, N-(3-(2-(3-cyano-3-methyl-8-azabicyclo[3.2.1]octan-8-yl)-5-(2-((2,2-dioxido-2-thiaspiro[3.3]heptan-6-yl)amino)pyrimidin-4-yl)thiazol-4-yl)-2-fluorophenyl)-2-fluoro-6-(trifluoromethyl)benzenesulfonamide], the IC50 was 0.051 µM. For `CN1CC2CCC(C1)N2c1nc(-c2cccc(NS(=O)(=O)c3c(F)cccc3OC(F)F)c2F)c(-c2ccnc(N[C@H]3[C@@H]4CS(=O)(=O)C[C@@H]43)n2)s1` [Example 122, 2-(difluoromethoxy)-N-(3-(5-(2-(((1R,5S,6r)-3,3-dioxido-3-thiabicyclo[3.1.0]hexan-6-yl)amino)pyrimidin-4-yl)-2-(3-methyl-3,8-diazabicyclo[3.2.1]octan-8-yl)thiazol-4-yl)-2-fluorophenyl)-6-fluorobenzenesulfonamide], the IC50 came out at 0.04 µM.

For `CC1(C)CCN1c1nc(-c2cccc(NS(=O)(=O)c3c(F)cccc3F)c2F)c(-c2ccnc(N[C@H]3[C@@H]4CS(=O)(=O)C[C@@H]43)n2)s1` [Example 100, N-(3-(2-(2,2-dimethylazetidin-1-yl)-5-(2-(((1R,5S,6r)-3,3-dioxido-3-thiabicyclo[3.1.0]hexan-6-yl)amino)pyrimidin-4-yl)thiazol-4-yl)-2-fluorophenyl)-2,6-difluorobenzenesulfonamide], the IC50 worked out at 0.1 µM.

For `O=S1(=O)C[C@@H]2[C@H](C1)[C@@H]2Nc1nccc(-c2sc(N3C4CCC3CN(C3CC(F)(F)C3)C4)nc2-c2cccc(NS(=O)(=O)c3c(F)cccc3C(F)(F)F)c2F)n1` [Example 108, N-(3-(2-(3-(3,3-difluorocyclobutyl)-3,8-diazabicyclo[3.2.1]octan-8-yl)-5-(2-(((1R,5S,6s)-3,3-dioxido-3-thiabicyclo[3.1.0]hexan-6-yl)amino)pyrimidin-4-yl)thiazol-4-yl)-2-fluorophenyl)-2-fluoro-6-(trifluoromethyl)benzenesulfonamide], the IC50 is 0.1 µM.

With `O=S1(=O)CC2(CC(Nc3nccc(-c4sc(C56CC(F)(C5)C6)nc4-c4cccc(NS(=O)(=O)c5c(F)cccc5C(F)(F)F)c4F)n3)C2)C1` [Example 86, N-(3-(5-(2-((2,2-dioxido-2-thiaspiro[3.3]heptan-6-yl)amino)-pyrimidin-4-yl)-2-(3-fluorobicyclo[1.1.1]pentan-1-yl)thiazol-4-yl)-2-fluorophenyl)-2-fluoro-6-(trifluoromethyl)benzenesulfonamide], the IC50 came to 0.04 µM. For `O=S1(=O)C[C@@H]2[C@H](C1)[C@H]2Nc1nccc(-c2sc(C34CC(C3)C4)nc2-c2cccc(NS(=O)(=O)c3c(F)cccc3OC(F)F)c2F)n1` [Example 113, N-(3-(2-(bicyclo[1.1.1]pentan-1-yl)-5-(2-(((1R,5S,6r)-3,3-dioxido-3-thiabicyclo[3.1.0]hexan-6-yl)amino)pyrimidin-4-yl)thiazol-4-yl)-2-fluorophenyl)-2-(difluoromethoxy)-6-fluorobenzenesulfonamide], the IC50 came to 0.07 µM. With `O=S1(=O)CC2(CC(Nc3nccc(-c4sc(C5(C(F)F)CCC5)nc4-c4cccc(NS(=O)(=O)c5c(F)cccc5C(F)(F)F)c4F)n3)C2)C1` [Example 83, N-(3-(2-(1-(difluoromethyl)cyclobutyl)-5-(2-((2,2-dioxido-2-thiaspiro[3.3]heptan-6-yl)amino)pyrimidin-4-yl)thiazol-4-yl)-2-fluorophenyl)-2-fluoro-6-(trifluoromethyl)benzenesulfonamide], the IC50 stood at 0.04 µM.
